Experimental data: patent US12421229B2, “Hydropyrido[1,2-α]pyrazine compounds for the treatment of autoimmune disease” (Hoffmann-La Roche Inc., priority 2019, dated 2025)

What was measured:
[1] = target: T1, CYP2D6 (Homo sapiens, UniProt P10635); test: CYP inhibition assay in human liver microsome, CYP2D6; type: in vitro ADME; details: percentage inhibition, substrate Dextromethorphan 5 μM
T1 construct: tissue BD-Gentest 452117; host or cells: human liver microsomes
Experimental: This is a high throughput screening assay used for assessment of reversible inhibition of CYP2C9, CYP2D6, and CYP3A4 activity of test compounds in human liver microsome (HLM) in early discovery stage.
10 mM DMSO stock solutions of test compounds were diluted in DMSO to generate 2 mM intermediate stock solution. 250 nL of intermediate stock solution were transferred in duplicate into 3 separate 384 well microtitre plates (assay-ready plates). A mixture of HLM and each substrate was made up. 45 μL of HLM substrate mix was then transferred to each well of an assay ready plate and mixed. The negative (solvent) and positive controls (standard inhibitor for each CYP) were included in each assay ready plate. The assay ready plate was warmed to 37° C. in an incubator over 10 minutes. 5 μL pre-warmed NADPH regenerating system was added to each incubation well to start the reaction. Final incubation volume was 50 μL. The assay plate then was placed back in the 37° C. incubator. After incubation (10 minutes for CYP2D6) for 5 minutes, incubates were quenched by addition of 50 μL 100% acetonitrile containing internal standards (400 ng/mL 13C6-4′-OH-Diclofenac, 20 ng/mL D3-Dextrorphan and 20 ng/mL D4-1′OH-Midazolam). The supernatants were collected for RapidFire/MS/MS analysis.
RapidFire online solid phase extraction/sample injection system (Agilent) coupled with API4000 triple quadrupole mass spectrometer (AB Sciex) were used for sample analysis. The mobile phase composed of acetonitrile and water supplemented with 0.1% formic acid. A C4 solid phase extraction cartridge is used for sample separation. MS detection is achieved in positive ion MRM mode.
Peak areas for substrate, metabolite and internal standard are determined using the RapidFire integrator software (version 3.6.12009.12296). Peak area ratios (PAR) of metabolite and internal standard (stable-labelled metabolite) are then calculated. The measurement window for each experiment is then defined:
PAR (0% activity)=average PAR for all incubations containing concentrated inhibitor;
Par (100% activity)=average PAR for all incubations containing no inhibitor (DMSO controls);
% Activity (test inhibitor)=[PAR(test inhibitor)−PAR(0% activity)/PAR(100% activity)−PAR(0% activity)];
% Inhibition (test inhibitor)=100−% Activity (test inhibitor).

[2] = target: T2, hERG K+ channel (Homo sapiens, UniProt Q12809); test: hERG channel inhibition assay (patch-clamp, CHOhERG cells); type: cell-based; details: for IC50 / IC20: CHOhERG cells, whole-cell patch-clamp; for IC20: human, CHO cells stably expressing hERG (CHOhERG); for hERG IC20/TLR7 IC50 / hERG IC20/TLR8 IC50 / hERG IC20/TLR9 IC50: safety ratio
T2 construct: expressed in transfected cells; host or cells: CHO (Chinese hamster ovary), CHOhERG
Experimental: The hERG K^+ channels were cloned in humans and stably expressed in a CHO (Chinese hamster ovary) cell line. CHOhERG cells were used for patch-clamp (voltage-clamp, whole-cell) experiments. Cells were stimulated by a voltage pattern to activate hERG channels and conduct IKhERG currents (rapid delayed outward rectifier potassium current of the hERG channel). After the cells were stabilized for a few minutes, the amplitude and kinetics of IKhERG were recorded at a stimulation frequency of 0.1 Hz, (6 bpm). Thereafter, the test compound was added to the preparation at increasing concentrations. For each concentration, an attempt was made to reach a steady-state effect, usually, this was achieved within 3-10 min at which time the next highest concentration was applied. The amplitude and kinetics of IKhERG are recorded in each concentration of the drug which were compared to the control values (taken as 100%). (references: Redfern W S, Carlsson L, Davis A S, Lynch W G, MacKenzie I, Palethorpe S, Siegl P K, Strang I, Sullivan A T, Wallis R, Camm A J, Hammond T G. 2003; Relationships between preclinical cardiac electrophysiology, clinical QT interval prolongation and torsade de pointes for a broad range of drugs: evidence for a provisional safety margin in drug development. Cardiovasc. Res. 58:32-45, Sanguinetti MC, Tristani-Firouzi M. 2006; hERG potassium channels and cardiac arrhythmia. Nature 440:463-469, Webster R, Leishman D, Walker D. 2002; Towards a drug concentration effect relationship for QT prolongation and torsades de pointes. Curr. Opin. Drug Discov. Devel. 5:116-26).

T1 sequence (P10635 whole entry): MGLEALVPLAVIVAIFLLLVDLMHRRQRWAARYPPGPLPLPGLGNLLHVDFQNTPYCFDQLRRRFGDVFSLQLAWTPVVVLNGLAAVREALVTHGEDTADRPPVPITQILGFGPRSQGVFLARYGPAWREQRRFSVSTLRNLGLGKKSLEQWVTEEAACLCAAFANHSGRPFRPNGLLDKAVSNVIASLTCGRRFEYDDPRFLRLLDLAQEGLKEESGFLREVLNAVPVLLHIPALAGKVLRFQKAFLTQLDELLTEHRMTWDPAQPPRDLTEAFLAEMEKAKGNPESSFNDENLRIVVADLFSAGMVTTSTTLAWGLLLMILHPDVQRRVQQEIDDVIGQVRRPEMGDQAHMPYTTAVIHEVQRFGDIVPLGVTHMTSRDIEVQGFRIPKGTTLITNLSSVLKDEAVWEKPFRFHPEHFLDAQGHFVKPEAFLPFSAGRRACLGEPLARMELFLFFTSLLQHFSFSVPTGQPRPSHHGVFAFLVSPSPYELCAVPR
T2 sequence (Q12809 whole entry): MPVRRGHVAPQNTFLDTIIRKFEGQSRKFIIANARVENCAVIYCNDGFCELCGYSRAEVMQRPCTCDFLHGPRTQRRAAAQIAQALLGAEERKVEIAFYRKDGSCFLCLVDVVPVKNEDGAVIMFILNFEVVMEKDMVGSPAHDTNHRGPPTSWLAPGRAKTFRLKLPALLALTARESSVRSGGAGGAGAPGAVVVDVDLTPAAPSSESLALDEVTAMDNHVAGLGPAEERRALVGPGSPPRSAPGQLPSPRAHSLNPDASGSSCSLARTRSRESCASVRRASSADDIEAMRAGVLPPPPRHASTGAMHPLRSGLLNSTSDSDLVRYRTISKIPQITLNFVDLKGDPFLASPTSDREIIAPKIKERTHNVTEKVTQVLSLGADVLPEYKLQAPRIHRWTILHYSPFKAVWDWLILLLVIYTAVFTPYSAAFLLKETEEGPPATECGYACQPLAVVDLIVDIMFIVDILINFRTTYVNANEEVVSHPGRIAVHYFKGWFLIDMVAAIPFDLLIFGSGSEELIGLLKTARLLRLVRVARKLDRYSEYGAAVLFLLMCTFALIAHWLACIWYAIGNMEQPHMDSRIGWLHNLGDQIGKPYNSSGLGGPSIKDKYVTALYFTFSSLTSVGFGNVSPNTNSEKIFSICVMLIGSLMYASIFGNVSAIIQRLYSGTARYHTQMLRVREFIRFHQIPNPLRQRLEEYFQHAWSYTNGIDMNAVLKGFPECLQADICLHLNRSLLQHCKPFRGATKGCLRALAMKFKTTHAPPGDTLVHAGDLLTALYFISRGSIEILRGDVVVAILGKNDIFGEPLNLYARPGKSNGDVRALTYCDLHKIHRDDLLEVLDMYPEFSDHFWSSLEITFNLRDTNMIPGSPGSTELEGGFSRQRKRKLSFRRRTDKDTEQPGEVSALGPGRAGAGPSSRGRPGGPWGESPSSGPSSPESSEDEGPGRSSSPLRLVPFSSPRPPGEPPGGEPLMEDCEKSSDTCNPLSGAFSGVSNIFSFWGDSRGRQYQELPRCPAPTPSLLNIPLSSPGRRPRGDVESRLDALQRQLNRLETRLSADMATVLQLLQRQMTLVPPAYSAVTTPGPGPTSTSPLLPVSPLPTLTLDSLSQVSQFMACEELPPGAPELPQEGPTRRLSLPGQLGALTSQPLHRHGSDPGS

| Compound | CYP (%) 2D6 [1] [%] | IC50 [2] [µM] | IC20 [2] [µM] | hERG IC20/TLR7 IC50 [2] | hERG IC20/TLR8 IC50 [2] | hERG IC20/TLR9 IC50 [2] |
| --- | --- | --- | --- | --- | --- | --- |
| CO[C@H]1CN(c2ccc([C@@H]3CCN4[C@@H](C3)CN(c3ccc(C#N)c5ncccc35)C[C@H]4C)cn2)C[C@@H]1N [Example 6, 5-[(4R,8R,9aS)-8-[6-[(3S,4S)-3-amino-4-methoxy-pyrrolidin-1-yl]-3-pyridyl]-4-methyl-1,3,4,6,7,8,9,9a-octahydropyrido[1,2-a]pyrazin-2-yl]quinoline-8-carbonitrile] | −12.5 | > 20 | 9.2 | 224.4 | 195.7 | 105.7 |
| CO[C@H]1CN(c2ccc([C@@H]3CCN4[C@@H](C3)CN(c3ccc(C#N)c5ncccc35)C[C@H]4C)cn2)C[C@H]1N [Example 12, 5-[(4R,8R,9aS)-8-[6-[(3R,4S)-3-amino-4-methoxy-pyrrolidin-1-yl]-3-pyridyl]-4-methyl-1,3,4,6,7,8,9,9a-octahydropyrido[1,2-a]pyrazin-2-yl]quinoline-8-carbonitrile] | 0 | – | – | – | – | – |
| CO[C@@H]1CN(c2ccc([C@@H]3CCN4[C@@H](C3)CN(c3ccc(C#N)c5ncccc35)C[C@H]4C)cn2)C[C@H]1N [Example 14, 5-[(4R,8R,9aS)-8-[6-[(3R,4R)-3-amino-4-methoxy-pyrrolidin-1-yl]-3-pyridyl]-4-methyl-1,3,4,6,7,8,9,9a-octahydropyrido[1,2-a]pyrazin-2-yl]quinoline-8-carbonitrile] | −0.5 | – | – | – | – | – |
| C[C@@H]1CN(c2ccc(C#N)c3ncccc23)C[C@@H]2C[C@H](c3ccc(N4C[C@@H](N)[C@@H](F)C4)nc3)CCN21 [Example 19, 5-[(4R,8R,9aS)-8-[6-[(3R,4S)-3-amino-4-fluoro-pyrrolidin-1-yl]-3-pyridyl]-4-methyl-1,3,4,6,7,8,9,9a-octahydropyrido[1,2-a]pyrazin-2-yl]quinoline-8-carbonitrile] | −6 | – | – | – | – | – |
| C[C@@H]1CN(c2ccc(C#N)c3ncccc23)C[C@@H]2C[C@H](Nc3ccc([C@H]4CNCCO4)cc3)CCN21 [Example 20, 5-[(4R,8R,9aS)-4-methyl-8-[4-[(2S)-morpholin-2-yl]anilino]-1,3,4,6,7,8,9,9a-octahydropyrido[1,2-a]pyrazin-2-yl]quinoline-8-carbonitrile] | – | > 20 | > 10 | >769.2 | >200 | >200 |
| C[C@@H]1CN(c2ccc(C#N)c3ncccc23)C[C@@H]2C[C@H](Nc3ccc(C[C@@H]4CNCCO4)cc3)CCN21 [Example 21, 5-[(4R,8R,9aS)-4-methyl-8-[4-[[(2R)-morpholin-2-yl]methyl]anilino]-1,3,4,6,7,8,9,9a-octahydropyrido[1,2-a]pyrazin-2-yl]quinoline-8-carbonitrile] | 9 | > 20 | > 10 | >500 | >185.2 | >116.3 |
| [2H]c1ccc2c(N3C[C@@H]4C[C@H](Nc5ccc(C[C@H]6CNCCO6)cc5)CCN4[C@H](C)C3)ccc(C#N)c2n1 [Example 34, 5-[(4R,8R,9aS)-4-methyl-8-[4-[[(2S)-morpholin-2-yl]methyl]anilino]-1,3,4,6,7,8,9,9a-octahydropyrido[1,2-a]pyrazin-2-yl]-2-deuterio-quinoline-8-carbonitrile] | 2.5 | > 20 | > 10 | >212.7 | >250 | >175.4 |
| [2H]c1ccc2c(N3C[C@@H]4C[C@H](N5CCN(c6ccncc6)CC5)CCN4[C@H](C)C3)ccc(C#N)c2n1 [Example 37, 5-[(4R,8R,9aS)-4-methyl-8-[4-(4-pyridyl)piperazin-1-yl]-1,3,4,6,7,8,9,9a-octahydropyrido[1,2-a]pyrazin-2-yl]-2-deuterio-quinoline-8-carbonitrile] | 14.5 | – | – | – | – | – |

Now from value to molecule, other results behind:

| CYP (%) 2D6 [1] [%] | Compound | IC50 [2] [µM] | IC20 [2] [µM] | hERG IC20/TLR7 IC50 [2] | hERG IC20/TLR8 IC50 [2] | hERG IC20/TLR9 IC50 [2] |
| --- | --- | --- | --- | --- | --- | --- |
| −5.5 | C[C@@H]1CN(c2ccc(C#N)c3ncccc23)C[C@@H]2C[C@H](c3ccc(N4CCNCC4)nc3)CCN21 (stereo in doubt) [Example 2, 5-[(4R,8R)-4-methyl-8-(6-piperazin-1-yl-3-pyridyl)-1,3,4,6,7,8,9,9a-octahydropyrido[1,2-a]pyrazin-2-yl]quinoline-8-carbonitrile] | – | – | – | – | – |
| −2 | C[C@@H]1CN(c2ccc(C#N)c3ncccc23)C[C@@H]2C[C@H](N3CC(c4ccc(N5CCNCC5)cc4)C3)CCN21 [Example 9, 5-[(4R,8R,9aS)-4-methyl-8-[3-(4-piperazin-1-ylphenyl)azetidin-1-yl]-1,3,4,6,7,8,9,9a-octahydropyrido[1,2-a]pyrazin-2-yl]quinoline-8-carbonitrile] | > 20 | > 10 | >370.4 | >277.8 | >312.5 |
| −24.5 | C[C@@H]1CN(c2ccc(C#N)c3ncccc23)C[C@@H]2C[C@@H](Oc3ccc(N4CCNCC4)cn3)CCN21 [Example 11, 5-[(4R,8S,9aS)-4-methyl-8-[(5-piperazin-1-yl-2-pyridyl)oxy]-1,3,4,6,7,8,9,9a-octahydropyrido[1,2-a]pyrazin-2-yl]quinoline-8-carbonitrile] | > 20 | > 10 | >217.4 | >666.6 | >111.1 |
| 8 | C[C@@H]1CN(c2ccc(C#N)c3ncccc23)C[C@@H]2C[C@H](c3ccc([C@@H]4CNCCO4)cc3)CCN21 [Example 27, 5-[(4R,8R,9aS)-4-methyl-8-[4-[(2R)-morpholin-2-yl]phenyl]-1,3,4,6,7,8,9,9a-octahydropyrido[1,2-a]pyrazin-2-yl]quinoline-8-carbonitrile] | – | – | – | – | – |
